Counter-ions that a name gives are not always drawn. Like-named read-outs stand apart in the source and are kept apart here.
Columns and labels:
[1] = target: PI3Kγ (p110γ) Recombinant Human Protein (Homo sapiens (Human), UniProt P48736); experiment: PI3K-γ Scintillation Proximity Assay; assay type: biochemical; conditions: read-out: PI3K-gamma SPA IC50
Procedure, shortened: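 Recombinant human p110γ (13 nM) with 20 μM PIP2 and 2 μM ATP plus 0.5 μCi [γ-33P]ATP in 20 mM MOPS pH 6.7, 10 mM MgCl2, 5 mM DTT, 0.03% CHAPS, 2% DMSO, 120 min at room temperature. Product captured on WGA SPA beads and counted; IC50 fitted from % of solvent control versus log concentration.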

[2] = tested on: Phosphorylated Ribosomal Protein S6 (RPS6) in THP-1 cells; experiment: THP-1 RPS6 ELISA Assay; assay type: cell-based, Human; conditions: MCP-1 stimulated, phospho-RPS6 ELISA, read-out: THP p-RPS6 ELISA IC50
Procedure, shortened: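 Serum-starved THP-1 cells (2×10^5/well, RPMI) preincubated with compound 2 h at 37° C, then stimulated with 10 nM MCP-1 for 15 min. Lysates assayed by phospho-RPS6 ELISA, absorbance 450 nm (540 nm correction); IC50 from percent inhibition versus log concentration.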

[3] = target: PI3Kδ (p110δ/p85α) Recombinant Human Protein (Homo sapiens (Human), UniProt O00329); experiment: PI3Kδ Scintillation Proximity Assay; assay type: biochemical; conditions: read-out: PI3K-delta SPA IC50
PI3Kδ (p110δ/p85α) Recombinant Human Protein, sequence (O00329 whole entry): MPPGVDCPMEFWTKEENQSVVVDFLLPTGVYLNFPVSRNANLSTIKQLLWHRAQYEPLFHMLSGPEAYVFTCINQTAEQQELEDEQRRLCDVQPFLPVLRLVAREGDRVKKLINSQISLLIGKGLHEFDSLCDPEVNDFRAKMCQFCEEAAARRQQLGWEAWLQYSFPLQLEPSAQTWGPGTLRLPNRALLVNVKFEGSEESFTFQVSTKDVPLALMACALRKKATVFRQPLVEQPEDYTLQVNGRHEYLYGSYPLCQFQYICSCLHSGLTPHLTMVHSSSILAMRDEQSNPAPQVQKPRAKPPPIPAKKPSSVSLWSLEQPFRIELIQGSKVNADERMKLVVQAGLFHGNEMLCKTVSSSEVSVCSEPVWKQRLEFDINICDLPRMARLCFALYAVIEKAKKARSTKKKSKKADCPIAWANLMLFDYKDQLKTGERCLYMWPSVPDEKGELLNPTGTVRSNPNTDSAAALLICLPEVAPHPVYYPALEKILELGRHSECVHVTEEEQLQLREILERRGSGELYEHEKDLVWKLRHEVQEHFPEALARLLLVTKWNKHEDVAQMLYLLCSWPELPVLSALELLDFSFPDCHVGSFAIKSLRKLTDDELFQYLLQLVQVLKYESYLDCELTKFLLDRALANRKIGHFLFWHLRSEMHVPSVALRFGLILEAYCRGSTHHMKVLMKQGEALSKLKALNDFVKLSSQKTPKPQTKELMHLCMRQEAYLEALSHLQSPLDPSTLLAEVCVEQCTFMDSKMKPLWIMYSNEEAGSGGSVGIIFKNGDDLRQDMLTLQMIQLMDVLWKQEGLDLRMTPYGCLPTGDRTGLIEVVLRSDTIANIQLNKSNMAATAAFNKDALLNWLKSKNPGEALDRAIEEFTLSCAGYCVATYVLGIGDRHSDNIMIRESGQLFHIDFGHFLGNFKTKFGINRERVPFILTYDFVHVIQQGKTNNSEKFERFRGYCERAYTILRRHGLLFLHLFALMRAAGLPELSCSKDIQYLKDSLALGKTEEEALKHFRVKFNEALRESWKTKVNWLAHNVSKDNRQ
PI3Kδ (p110δ/p85α) Recombinant Human Protein, sequence (P27986 whole entry partner): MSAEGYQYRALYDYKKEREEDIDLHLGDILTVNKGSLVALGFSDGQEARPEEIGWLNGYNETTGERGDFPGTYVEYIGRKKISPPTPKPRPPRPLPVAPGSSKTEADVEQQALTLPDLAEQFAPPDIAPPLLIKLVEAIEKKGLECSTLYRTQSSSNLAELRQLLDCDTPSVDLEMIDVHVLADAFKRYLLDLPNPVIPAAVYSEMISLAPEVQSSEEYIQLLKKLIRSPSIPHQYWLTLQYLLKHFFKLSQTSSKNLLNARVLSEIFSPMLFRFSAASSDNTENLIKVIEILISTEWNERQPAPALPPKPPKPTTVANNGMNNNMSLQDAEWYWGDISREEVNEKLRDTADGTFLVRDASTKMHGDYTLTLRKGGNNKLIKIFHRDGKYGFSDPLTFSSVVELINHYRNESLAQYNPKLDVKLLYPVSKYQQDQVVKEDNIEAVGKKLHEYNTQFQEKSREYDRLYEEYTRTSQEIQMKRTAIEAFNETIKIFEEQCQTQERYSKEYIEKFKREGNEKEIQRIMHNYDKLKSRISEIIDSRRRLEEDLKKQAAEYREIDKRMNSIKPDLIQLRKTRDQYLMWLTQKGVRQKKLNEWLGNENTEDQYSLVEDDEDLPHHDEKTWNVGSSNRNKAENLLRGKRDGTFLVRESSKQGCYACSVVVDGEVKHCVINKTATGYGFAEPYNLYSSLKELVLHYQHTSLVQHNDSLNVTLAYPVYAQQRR
Procedure, shortened: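 Recombinant human p110δ/p85α (3.4 nM) with 20 μM PIP2 and 2 μM ATP plus [γ-33P]ATP, in 20 mM MOPS pH 6.7, 10 mM MgCl2, 5 mM DTT, 0.03% CHAPS, 2% DMSO; 120 min at room temperature. Product captured on WGA SPA beads, scintillation counted; IC50 from percent-of-control curves.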

PI3Kγ (p110γ) Recombinant Human Protein, sequence (P48736 whole entry): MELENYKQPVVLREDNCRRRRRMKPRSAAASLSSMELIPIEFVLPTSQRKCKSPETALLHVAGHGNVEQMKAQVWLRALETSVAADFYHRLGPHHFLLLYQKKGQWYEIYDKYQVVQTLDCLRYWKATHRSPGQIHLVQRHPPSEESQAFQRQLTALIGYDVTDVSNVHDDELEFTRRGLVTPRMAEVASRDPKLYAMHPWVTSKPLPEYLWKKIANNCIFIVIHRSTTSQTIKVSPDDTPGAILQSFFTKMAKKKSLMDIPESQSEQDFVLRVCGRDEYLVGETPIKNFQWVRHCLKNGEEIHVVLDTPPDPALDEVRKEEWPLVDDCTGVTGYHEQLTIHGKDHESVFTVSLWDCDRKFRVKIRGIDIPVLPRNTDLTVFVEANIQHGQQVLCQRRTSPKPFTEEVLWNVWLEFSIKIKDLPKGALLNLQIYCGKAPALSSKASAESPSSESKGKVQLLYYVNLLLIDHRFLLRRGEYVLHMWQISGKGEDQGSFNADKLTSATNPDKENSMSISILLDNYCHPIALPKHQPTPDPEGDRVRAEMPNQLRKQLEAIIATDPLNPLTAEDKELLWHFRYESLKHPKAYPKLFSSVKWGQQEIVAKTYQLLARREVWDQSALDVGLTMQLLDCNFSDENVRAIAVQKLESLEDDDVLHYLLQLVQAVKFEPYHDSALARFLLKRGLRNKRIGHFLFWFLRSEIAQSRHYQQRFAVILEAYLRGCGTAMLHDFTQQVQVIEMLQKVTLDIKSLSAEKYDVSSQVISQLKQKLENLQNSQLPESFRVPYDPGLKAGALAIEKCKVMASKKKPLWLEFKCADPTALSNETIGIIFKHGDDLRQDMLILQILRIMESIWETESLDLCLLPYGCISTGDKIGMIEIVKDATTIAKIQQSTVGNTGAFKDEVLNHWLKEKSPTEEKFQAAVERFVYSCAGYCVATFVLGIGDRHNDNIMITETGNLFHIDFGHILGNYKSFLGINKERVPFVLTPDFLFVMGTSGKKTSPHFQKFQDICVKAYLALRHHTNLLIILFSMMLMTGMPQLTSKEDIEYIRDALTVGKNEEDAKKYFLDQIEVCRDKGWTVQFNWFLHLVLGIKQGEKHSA

Row | SMILES | IC50 [1] | IC50 ([2]; Homo sapiens) | IC50 [3] | IC50 [2]
1 | CO[C@H]1CCN(C(=O)c2cncc(-c3ccnc(-c4nc(C)c(C)[nH]4)c3)c2)C1 [Example 212B, 2′-(4,5-Dimethyl-1H-imidazol-2-yl)-5-{[(3S)-3-methoxypyrrolidin-1-yl]carbonyl}-3,4′-bipyridine trifluoroacetate salt] | ≤ 50 nM | 300 to 1000 nM | ≤ 100 nM | –
2 | CNC(=O)c1nc(-c2cc(-c3cnn(Cc4ccc(Cl)cc4)c3)ccn2)[nH]c1C [Example 296] | ≤ 50 nM | > 5000 nM | > 500 nM | –
3 | CCc1[nH]c(-c2cc(-c3cncc(S(C)(=O)=O)c3)ccn2)nc1C [Example 117, 2′-(5-Ethyl-4-methyl-1H-imidazol-2-yl)-5-(methylsulfonyl)-3,4′-bipyridine] | ≤ 50 nM | ≤ 300 nM | ≤ 50 nM | –
4 | Cc1[nH]c(-c2cc(-c3cncc(N4CCOCC4)c3)ccn2)nc1C(=O)NC1CCOCC1 [Example 269, 5-Methyl-2-(5-morpholin-4-yl-3,4′-bipyridin-2′-yl)-N-(tetrahydro-2H-pyran-4-yl)-1H-imidazole-4-carboxamide trifluoroacetate salt] | ≤ 50 nM | 300 to 1000 nM | ≤ 50 nM | –
5 | CC(C)c1cnc(-c2cc(-c3cncc(S(C)(=O)=O)c3)ccn2)[nH]1 [Example 111, 2′-(5-Isopropyl-1H-imidazol-2-yl)-5-(methylsulfonyl)-3,4′-bipyridine trifluoroacetate salt] | ≤ 50 nM | 300 to 1000 nM | ≤ 50 nM | –
6 | COC[C@@H](NC(=O)c1nc(-c2cc(-c3cncc(N4CCOCC4)c3)ccn2)[nH]c1C)c1ccccc1 [Example 276, N-[(1S)-2-Methoxy-1-phenylethyl]-5-methyl-2-(5-morpholin-4-yl-3,4′-bipyridin-2′-yl) 1H-imidazole-4-carboxamide trifluoroacetate salt] | ≤ 100 nM | – | ≤ 50 nM | ≤ 300 nM
7 | COc1cncc(-c2ccnc(-c3ncc(-c4ccc(S(=O)(=O)N(C)C)cc4)[nH]3)c2)c1 [Example 83, 4-(2-(5-Methoxy-3,4′-bipyridin-2′-yl)-1H-imidazol-5-yl)-N,N-dimethylbenzenesulfonamide trifluoroacetate salt] | ≤ 50 nM | > 5000 nM | ≤ 50 nM | –
8 | Cc1[nH]c(-c2cc(-c3cncc(S(C)(=O)=O)c3)ccn2)nc1C(F)F [Example 121, 2′-[4-(Difluoromethyl)-5-methyl-1H-imidazol-2-yl]-5-(methylsulfonyl)-3,4′-bipyridine Trifluoroacetate Salt] | ≤ 50 nM | ≤ 300 nM | ≤ 50 nM | –
9 | Cc1[nH]c(-c2cc(-c3cnn(Cc4ccc(Cl)cc4)c3)ccn2)nc1C(=O)N[C@H]1CCOC1 [Example 295] | ≤ 50 nM | 1000 to 5000 nM | ≤ 500 nM | –
10 | Cc1[nH]c(-c2cc(-c3cncc(S(C)(=O)=O)c3)ccn2)nc1C(=O)N[C@@H]1CCOC1 [Example 256, 5-Methyl-2-[5-(methylsulfonyl)-3,4′-bipyridin-2′-yl]-N-[(3R)-tetrahydrofuran-3-yl]-1H-imidazole-4-carboxamide trifluoroacetate salt] | ≤ 50 nM | 1000 to 5000 nM | ≤ 50 nM | –
11 | Cc1[nH]c(-c2cc(-c3cncc(S(C)(=O)=O)c3)ccn2)nc1C(=O)N[C@H]1CCOC1 [Example 255, 5-Methyl-2-[5-(methylsulfonyl)-3,4′-bipyridin-2′-yl]-N-[(3,S)-tetrahydrofuran-3-yl]-lH-imidazole-4-carboxamide trifluoroacetate salt] | ≤ 50 nM | – | ≤ 50 nM | 300 to 1000 nM
12 | COC(=O)C1CCN(C(=O)c2cncc(-c3ccnc(-c4nc(C)c(C)[nH]4)c3)c2)C1 (racemic) [Example 175, Methyl 1-{[2′-(4,5-dimethyl-1H-imidazol-2-yl)-3,4′-bipyridin-5-yl]carbonyl}pyrrolidine-3-carboxylate trifluoroacetate salt] | ≤ 50 nM | ≤ 300 nM | ≤ 50 nM | –
13 | CS(=O)(=O)c1cncc(-c2ccnc(-c3ncc(-c4ccccc4)[nH]3)c2)c1 [Example 40, 5-(Methylsulfonyl)-2′-(5-phenyl-1H-imidazol-2-yl)-3,4′-bipyridine trifluoroacetate salt] | ≤ 50 nM | ≤ 300 nM | ≤ 50 nM | –
14 | Cc1nc(-c2cc(-c3cncc(C(=O)N4CCN(C5CCN(C)CC5)CC4)c3)ccn2)[nH]c1C [Example 158, (2′-(4,5-Dimethyl-1H-imidazol-2-yl)-3,4′-bipyridin-5-yl)(4-(1-methylpiperidin-4-yl)piperazin-1-yl)methanone] | ≤ 50 nM | 1000 to 5000 nM | ≤ 100 nM | –
15 | Cc1nc(-c2cc(-c3cncc(C(=O)NCC4CCC4)c3)ccn2)[nH]c1C [Example 206, N-(Cyclobutylmethyl)-2′-(4,5-dimethyl-1H-imidazol-2-yl)-3,4′-bipyridine-5-carboxamide trifluoroacetate salt] | ≤ 100 nM | 1000 to 5000 nM | ≤ 100 nM | –

Second part, led by results:

Row | IC50 [1] | IC50 ([2]; Homo sapiens) | IC50 [3] | SMILES | IC50 [2]
16 | ≤ 100 nM | > 5000 nM | ≤ 500 nM | N#Cc1ccccc1Cn1cc(-c2ccnc(-c3ncc(-c4ccccc4)[nH]3)c2)cn1 [Example 6, 2-((4-(2-(5-Phenyl-1H-imidazol-2-yl)pyridin-4-yl)-1H-pyrazol-1-yl)methyl)benzonitrile trifluoroacetate salt] | –
17 | ≤ 50 nM | ≤ 300 nM | ≤ 50 nM | Cc1nc(-c2cc(-c3cncc(C(=O)N4CCCC4)c3)ccn2)[nH]c1C [Example 151, (2′-(4,5-Dimethyl-1H-imidazol-2-yl)-3,4′-bipyridin-5-yl)(pyrrolidin-1-yl)methanone] | –
18 | ≤ 50 nM | > 5000 nM | ≤ 50 nM | c1ccc(-c2cnc(-c3cc(-c4cncc(NCC5CCOCC5)c4)ccn3)[nH]2)cc1 [Example 141, 2′-(5-Phenyl-1H-imidazol-2-yl)-N-(tetrahydro-2H-pyran-4-ylmethyl)-3,4′-bipyridin-5-amine Trifluoroacetate Salt] | –
19 | ≤ 50 nM | – | ≤ 50 nM | Cc1nc(-c2cc(-c3cncc(C(=O)N4CC[C@@H](O)C4)c3)ccn2)[nH]c1C [Example 163, (R)-(2′-(4,5-Dimethyl-1H-imidazol-2-yl)-3,4′-bipyridin-hydroxypyrrolidin-1-yl)methanone trifluoroacetate salt] | ≤ 300 nM
20 | ≤ 500 nM | > 5000 nM | ≤ 500 nM | COc1cncc(-c2ccnc(-c3nnc(-c4ccccc4)[nH]3)c2)c1 [Example 71, 5-Methoxy-2′-(5-phenyl-4H-1,2,4-triazol-3-yl)-3,4′-bipyridine] | –
21 | ≤ 50 nM | 300 to 1000 nM | ≤ 50 nM | Cc1nc(-c2cc(-c3cncc(C(=O)N4CC(O)C4)c3)ccn2)[nH]c1C [Example 152, (2′-(4,5-Dimethyl-1H-imidazol-2-yl)-3,4′-bipyridin-5-yl)(3-hydroxyazetidin-1-yl)methanone trifluoroacetate salt] | –
22 | ≤ 50 nM | 1000 to 5000 nM | ≤ 50 nM | Cc1nc(-c2cc(-c3cncc(C(=O)N4CCC5(CCOCC5)CC4)c3)ccn2)[nH]c1C [Example 156, (2′-(4,5-Dimethyl-1H-imidazol-2-yl)-3,4′-bipyridin-5-yl)(3-oxa-9-azaspiro[5.5]undecan-9-yl)methanone trifluoroacetate salt] | –
23 | ≤ 50 nM | > 5000 nM | ≤ 50 nM | COc1cncc(-c2ccnc(-c3nc(C)c(-c4ccccc4)[nH]3)c2)c1 [Example 82, 5-Methoxy-2′-(4-methyl-5-phenyl-1H-imidazol-2-yl)-3,4′-bipyridine trifluoroacetate salt] | –
24 | ≤ 50 nM | 300 to 1000 nM | ≤ 50 nM | Cc1nc(-c2cc(-c3cncc(C(=O)N4CCC4C(F)(F)F)c3)ccn2)[nH]c1C (racemic) [Example 184, 2′-(4,5-Dimethyl-1H-imidazol-2-yl)-5-{[2-(trifluoromethyl)azetidin-1-yl]carbonyl}-3,4′-bipyridine trifluoroacetate salt] | –
25 | ≤ 500 nM | > 5000 nM | ≤ 100 nM | O=C(Nc1cncc(-c2ccnc(-c3ncc(-c4ccccc4)[nH]3)c2)c1)C1CCCC1 [Example 138, N-(2′-(5-Phenyl-1H-imidazol-2-yl)-3,4′-bipyridin-5-yl)cyclopentanecarboxamide] | –
26 | ≤ 50 nM | ≤ 300 nM | ≤ 50 nM | Cc1nc(-c2cc(-c3cncc(C(=O)N4CC[C@H](O)C4)c3)ccn2)[nH]c1C [Example 146, (S)-(2′-(4,5-Dimethyl-1H-imidazol-2-yl)-3,4′-bipyridin-5-yl)(3-hydroxypyrrolidin-1-yl)methanone] | –
27 | ≤ 50 nM | 300 to 1000 nM | ≤ 50 nM | Cc1[nH]c(-c2cc(-c3cncc(N4CCOCC4)c3)ccn2)nc1C(=O)NC1CCCCC1 [Example 265, N-Cyclohexyl-5-methyl-2-(5-morpholin-4-yl-3,4′-bipyridin-2′-yl)-1H-imidazole-4-carboxamide] | –

Reference: patent publication US11352340B2, “Pyridine and pyridimine compounds as PI3K-gamma inhibitors” (Incyte Corporation, priority 2016, dated 2022)
